According to patent US9604974B2, “Compounds as modulator of JAK-STAT pathway, methods and applications thereof” (UNIVERSITY OF MYSORE, priority 2015, dated 2017):

Tests used:
JAK2 = assay: IL-6 induced JAK2 phosphorylation in Hep3B; format: cell-based; details: 10 μMol/L CIMO, IL-6 10 ng/mL
Method: (§1) FIG. 3 depicts comparative study of cell viability between STAT3-siRNA transfected and Compound 1 (CIMO) treated HepG2 cells [A]. Correspondingly, Western Blot analysis is used to assess the levels of phospho-STAT3 and STAT3 in HepG2 cells with siRNA-mediated depletion STAT3 expression and on exposure to 4 μM CIMO. Whole cell extract is prepared and resolved on SDS-PAGE gel, electrotransferred onto nitrocellulose membrane, and probed for phospho-STAT3 and the same blot is stripped and reprobed with STAT3 antibody and Beta actin to verify equal protein loading. [B] showcases the modulation of STAT3 mediated transcription, α2-M promoter activity by Compound 1 (CIMO) in HepG2 cells. [C] depicts the inhibition of IL-6-induced phosphorylation of STAT3, JAK1 and JAK2 by Compound 1 (CIMO). Hep3B cells (5×10^5/mL) are treated with 10 μMol/L CIMO for the indicated times and then stimulated with IL-6 (10 ng/mL) for about 15 minutes. Whole-cell extracts are then prepared, resolved on SDS-PAGE gel, electrotransferred onto nitrocellulose membrane and probed with phospho-STAT3, phospho-JAK1 and phospho-JAK2 antibodies. The same blot is stripped and reprobed with STAT3, JAK1 and JAK2 antibody to verify equal protein loading. [D] and [E], showcases the suppression of STAT3 regulated gene products involved in cell proliferation and survival by Compound 1 (CIMO). […]

[1] = system: phospho-STAT3, Ki-67, cleaved caspase-3; assay: Immunohistochemistry of tumor tissues; format: in vivo, athymic nu/nu female mice; details: treated vs. control group
Method: The effect of CIMO on constitutive phospho-STAT3 levels in HCC tumor tissues is further analyzed by immunohistochemical analysis. Solid tumors from control and drug-treated groups are fixed with 10% phosphate buffered formalin, processed, and embedded in paraffin. The sections are cut to 5 micron size and deparafinized in xylene, dehydrated in graded alcohol, and finally hydrated in water. Antigen retrieval is conducted by boiling the slide in 10 mM sodium citrate (pH 6.0) for about 30 minutes. Immunohistochemistry is conducted following the manufacturer's instructions (Dako LSAB Kit). Briefly, endogenous peroxidases are quenched with 3% hydrogen peroxide. Sections are incubated with primary antibodies for about 2 hours as follows: anti-pSTAT3, anti-Ki-67 and anti-caspase-3 (each at 1:100 dilutions). The slides are subsequently washed several times in TBS with 0.1% Tween-20 and are incubated with biotinylated linker for about 45 minutes, provided in the LSAB Kit according to the manufacturer's instructions. Immunoreactive species are detected using 3, 3′-diaminobenzidine tetrahydrochloride as a substrate. The sections are counterstained with Gill's hematoxylin and mounted under glass cover slips. Images are taken using an Olympus BX51 microscope (magnification, 40×). Quantitative analysis of immunohistochemistry images are done by visual scores between the control and treated images. In this expression quantitation technique, each image is divided into four parts and each part is individually quantitated for the biomarker expression. A cell scored as positive refers to the presence of brown staining (peroxidase) in any part of the studied tissue. A negative cell scored refers to no staining or weak staining.

[2] = system: Bcl-2, Bcl-xL, Survivin, ICAM-1, Bid, Cyclin D1, Bak; assay: Western blot of STAT3-regulated gene products; format: cell-based, human; details: HepG2, 10 μMol/L CIMO
Method: as §1
To detect STAT3-regulated proteins and PARP, cells (2×10^6/ml) are treated with CIMO for the indicated times as shown in respective FIGS. 3E, 3D and 4A. […] Whole-cell extract protein (30 μg) is resolved on SDS-PAGE, electrotransferred onto a nitrocellulose membrane, blotted with antibodies against survivin, Bcl-2, Bcl-xL, cyclin D1, Bak, Bid, ICAM-1, procaspase-3, and PARP and then detected by chemiluminescence (ECL; GE Healthcare, Little Chalfont, Buckinghamshire, UK).

COc1ccc(C2CNC(c3cn(Cc4ccc(-c5ccccc5C#N)cc4)c4ccccc34)OC23CCCCC3)cc1 (stereo not shown) [Compound 1]
IL-6 induced phosphorylation of JAK2 (JAK2): substantially down-regulates
constitutive STAT3 activation in tumor tissues [1]: significantly inhibits
expression of Ki-67 in tumor tissues [1]: downregulated
expression of cleaved caspase-3 in tumor tissues [1]: significantly increased
expression of Bcl-2, Bcl-xL, Survivin, ICAM-1, Bid and Cyclin D1 [2]: Down-regulation
time of maximum activity on Bak expression [2]: 36 h
expression of pro-apoptotic protein Bak ([2]; time-dependent): upregulation
